{
  "source": "patent US20190358286A1",
  "about": "“METHODS FOR THE PREVENTION OR TREATMENT OF LEFT VENTRICLE REMODELING” (Stealth BioTherapeutics Corp., priority 2013, published 2019)",
  "key": {"[1]": {"system": "rats with permanent coronary artery occlusion", "test": "Deaths during 6 weeks treatment", "type": "in vivo, rat", "details": "74 rats randomized to peptide or water", "method": "Rats were anesthetized, ventilated, and a thoracotomy performed in the left 4th intercostal space. Temperature was maintained at 36° C. by placing the rats on a heating pad during the procedure. The pericardium was excised and the proximal left coronary artery isolated and permanently occluded with a suture. Coronary artery occlusion was confirmed by cyanosis and akinesis of the anterior wall of the ventricle. The chest was closed, air evacuated, and the rats allowed to recover. Analgesia was administered per the veterinarian. An echocardiogram was obtained at approximately 15 minutes post coronary artery occlusion. At 2 hours rats were randomized to receive chronic daily D-Arg-2′,6′-Dmt-Lys-Phe-NH2 (delivered subcutaneously by an Alzet Osmotic Pump—3 mg/kg/day) or water. […] Heart rate and blood pressure were measured. A Millar catheter was inserted into the left ventricle and LV systolic pressure, LV end diastolic pressure, +dP/dt, and −dP/dt were measured. […] Postmortem left ventricle volume was measured by filling the LV cavity with fluid and measuring the total fluid. […] Quantitative histologic analysis included: total circumference, scar circumference, non-infarcted wall circumference, total LV area, total LV cavity area, LV wall thickness (at several points), non-infarcted wall thickness; myocardial infarct expansion index. […]"}, "[2]": {"system": "several mammalian cell types", "details": "energy-independent manner; cited from earlier work"}},
  "note": "Non-standard residues stand in square brackets, D forms with d. Residues, ends and D or L forms follow the SMILES beside them. Dmt = Cc1cc(O)cc(C)c1C[C@H](N)C(=O)O",
  "data": [
    {"compound": "Cc1cc(O)cc(C)c1C[C@H](NC(=O)[C@H](N)CCCNC(=N)N)C(=O)N[C@@H](CCCCN)C(=O)N[C@@H](Cc1ccccc1)C(N)=O", "note": "[D-Arg-2′,6′-Dmt-Lys-Phe-NH2] (H-[dR][Dmt]KF-NH2)", "values": [
      {"measurement": "deaths during the 6 weeks treatment", "setting": "[1]", "value": "no rats died"}
    ]},
    {"compound": "2′,6′-Dmt-D-Arg-Phe-Lys-NH2", "values": [
      {"measurement": "penetration of the plasma membrane", "setting": "[2]", "value": "readily penetrates"}
    ]}
  ]
}
